# Read-outs that look alike come from different tables or passages of the source. Where a SMILES comes first, the peptide text is derived from it. Bridges are numbered along the chain shown (N, C = ends).
# How the values were obtained:
# hKv1.1 = molecular target: T1, hKv1.1 (Homo sapiens, UniProt Q09470); experiment: Whole-cell patch-clamp of Kv1.1 currents in transiently transfected CHO cells; type: cell-based
# T1 construct: host or cells: CHO cells, transient transfection (Lipofectamine 2000)
# Method: (§1) Macroscopic Kv1.1 and Kv1.2 currents were measured in transiently transfected CHO cells. For Kv1.3 current recording, human T lymphocytes were activated by Phytohemagglutinin A (PHA) to increase Kv1.3 channel expression, and micro-pipettes were filled with Ca^2+-free solution to prevent KCa3.1 channel activation. K^+ currents were evoked by applying 15-ms-long depolarization pulses to +50 mV from a holding potential of −120 mV except for Kv1.2, as it has highly variable activation kinetics; therefore, 15–500 ms-long pulses were applied to maximize the open probability of Kv1.2 channel. CboK peptide toxins were dissolved in a freshly prepared extracellular solution and applied to the whole-cell patch-clamped cells using a micro perfusion system at 200 μL/min flow rate.
# (§2) CHO cells were transiently transfected by using Lipofectamine 2000 kit (Invitrogen, Carlsbad, CA, USA), as per the manufacturer’s protocol with vector pCMV6-AC-GFP (cat# RG211000 and RC222200; OriGene Technologies, Rockville, MD, USA) encoding hKv1.1 (hKCNA1 gene) or hKv1.2 (hKCNA2 gene) ion channels. Cells were grown under standard conditions in an incubator at 37 °C and 5% CO2 for 24 h. GFP-positive transfected cells were identified by utilizing a Nikon TMS fluorescence microscope (Nikon, Tokyo, Japan) using bandpass filters of 455–495 nm and 515–555 nm for excitation and emission, respectively.
# (§3) The patch-clamp technique was used for measuring whole-cell currents in voltage-clamped mode using standard protocols. Electrophysiological recordings were acquired by using Multiclamp 700B amplifier connected to a personnel computer with an Axon Digidata1440 digitizer (Molecular Devices, Sunnyvale, CA, USA). Pipettes were pulled from GC150F-15 borosilicate capillaries (Harvard Apparatus, Kent, UK) having 3−5 MΩ tip resistance in the bath solution. All current recordings were carried out at room temperature (20−25 °C) and only those currents were recorded and subjected to analyses when the leak current at holding potential was <5% of peak current at the test potential. Current traces were lowpass-filtered by utilizing the built-in analog four-pole Bessel filters of the amplifiers and were sampled at 20 kHz which is at least twice the filter cut-off frequency. A gravity-driven perfusion system was used to perfuse the cells with control and test solutions and excess fluid was removed continuously through vacuum suction. The extracellular solution (bath solution) contained 145 mM NaCl, 5.5 mM glucose, 5 mM KCl, 2.5 mM CaCl2, 1 mM MgCl2, and 10 mM HEPES, having pH of 7.35 and an osmolarity between 302 and 308 mOsM/L. Toxins were dissolved in bath solution at different molar concentrations and supplemented with 0.1 mg/mL of bovine serum albumin BSA (Sigma-Aldrich, Budapest, Hungary). The intracellular solution (pipette filling) was comprised of 140 mM KF, 2 mM MgCl2, 1 mM CaCl2, 10 mM HEPES, and 11 mM EGTA, with a pH of 7.22 and an osmolarity of ~295 mOsM/L.
# (§4) Generally, to evoke the Kv1.xcurrents, 15-ms-long depolarization pulses to +50 mV from a holding potential of −120 mV were applied, and the current traces were recorded after every 15 s. However, in the case of Kv1.2, due to its variable activation kinetics, the duration of the depolarization pulse was set between 15 and 500 ms to attain the saturated peak current.
# hKv1.2 = molecular target: T2, hKv1.2 (Homo sapiens, UniProt P16389); experiment: Whole-cell patch-clamp of Kv1.2 currents in transiently transfected CHO cells; type: cell-based
# T2 construct: GFP (C); host or cells: CHO cells, transient transfection (Lipofectamine 2000)
# Method: as §1, §2, §3, §4
# Kv1.3 [1] = molecular target: T3, Kv1.3 (Homo sapiens, UniProt P22001); experiment: Whole-cell patch-clamp of Kv1.3 currents in PHA-activated human T lymphocytes; type: cell-based
# T3 construct: endogenous in cells
# Method: as §1
# Isochronal RCF data points obtained this way (isochronal RCF = I4ms/I4ms,0 where I4ms,0 and I4ms are the currents at 4 ms time point in the absence and presence of CboK peptides, respectively) at different toxin concentrations were fitted with the Hill equation to obtain concentration–response curves as shown in Figure 6H.
# Human peripheral venous blood was acquired from anonymous healthy volunteers from the blood bank. Blood samples were collected by having approval from the Ethical Committee of the Hungarian Medical Research Council (36255-6/2017/EKU). PBMCs were separated by Histopaque 1077 (Sigma-Aldrich, Budapest, Hungary) separation technique, and isolated cells, at the density of 5 × 10^5 cells, were cultured in RPMI 1640 media (Gibco, Grand Island, NY, USA) supplemented with 10% FBS (Sigma-Aldrich, Budapest, Hungary), 2 mM L-glutamine, […], and […] penicillin in a humidified incubator at 37 °C and 5% CO2 for 3–6 days. A measure of 2, 5, or 10 μg/mL of Phytohemagglutinin A (PHA) (Sigma-Aldrich, Budapest, Hungary) was added in cultured cells to activate the PBMCs and upregulate the Kv1.3 expression.
# as §3, with “suction.” for “suction. The extracellular solution (bath solution) contained 145 mM NaCl, 5.5 mM glucose, 5 mM KCl, 2.5 mM CaCl2, 1 mM MgCl2, and 10 mM HEPES, having pH of 7.35 and an osmolarity between 302 and 308 mOsM/L. Toxins were dissolved in bath solution at different molar concentrations and supplemented with 0.1 mg/mL of bovine serum albumin BSA (Sigma-Aldrich, Budapest, Hungary). The intracellular solution (pipette filling) was comprised of 140 mM KF, 2 mM MgCl2, 1 mM CaCl2, 10 mM HEPES, and 11 mM EGTA, with a pH of 7.22 and an osmolarity of ~295 mOsM/L.”
# Kv1.3 [2] = molecular target: T3, Kv1.3; experiment: as above; type: cell-based; details: 1 µM toxin, end of 15-ms pulse to 0 mV (Figure 6E)
# Kv1.1 = molecular target: Kv1.1; design: method as in 3 sources, ref 40 (CoTx1), 32 (CoTx2) ||| ref 33 = [33]; PMID 26921461; doi:10.1016/j.toxicon.2016.02.017; 33. Olamendi-Portugal T. Bartok A. Zamudio-Zuñiga F. Balajthy A. Becerril B. Panyi G. Possani L.D. Isolation, chemical and functional characterization of several new K+-channel blocking peptides from ||| ref 33 (II-x toxins), 40 (CoTx1); details: no reference given; read-out: Kd for Kv1.1 (positive control concentration equivalent to Kd); cited from earlier work
# Kv1.3 [3] = details: no reference given; read-out: Kd for Kv1.3 (positive control concentration equivalent to Kd); cited from earlier work
# Kv1.2 = molecular target: Kv1.2; design: method as in 7 sources, ref 40 (CoTx1), 33 (II-x toxins), 45, 46 (Maurotoxin) ||| ref 32 (CoTx2), 33 (II-10.9), 34 (Ce3) ||| ref 33 (II-x toxins), 47, 48 (Pi4) ||| ref 33 (II-10.4), 32 (CoTx2) ||| ref 33 = [33]; PMID 26921461; doi:10.1016/j.toxicon.2016.02.017; 33. Olamendi-Portugal T. Bartok A. Zamudio-Zuñiga F. Balajthy A. Becerril B. Panyi G. Possani L.D. Isolation, chemical and functional characterization of several new K+-channel blocking peptides from ||| ...; details: cited from earlier work
# Method: Macroscopic Kv1.1 and Kv1.2 currents were measured in transiently transfected CHO cells.
# Kv1.2 (Homo sapiens) = Kv1.2 (Homo sapiens) (UniProt P16389); details: cited from earlier work
# Sequence of Kv1.2 (Homo sapiens) (P16389 whole entry): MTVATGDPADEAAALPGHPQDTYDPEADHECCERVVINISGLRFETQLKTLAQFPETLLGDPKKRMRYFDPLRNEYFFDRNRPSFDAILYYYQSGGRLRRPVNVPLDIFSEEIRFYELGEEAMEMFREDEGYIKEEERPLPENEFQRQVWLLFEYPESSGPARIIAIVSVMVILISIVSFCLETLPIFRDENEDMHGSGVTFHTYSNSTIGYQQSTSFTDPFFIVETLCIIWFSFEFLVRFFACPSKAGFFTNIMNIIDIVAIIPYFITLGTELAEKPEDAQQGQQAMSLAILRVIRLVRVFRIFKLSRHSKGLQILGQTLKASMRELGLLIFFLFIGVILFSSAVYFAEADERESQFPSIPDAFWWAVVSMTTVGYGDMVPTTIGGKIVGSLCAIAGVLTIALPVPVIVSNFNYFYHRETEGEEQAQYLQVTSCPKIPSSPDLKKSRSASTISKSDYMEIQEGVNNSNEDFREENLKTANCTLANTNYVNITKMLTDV
# T2 sequence (P16389 whole entry): as above
# T3 sequence (P22001 whole entry): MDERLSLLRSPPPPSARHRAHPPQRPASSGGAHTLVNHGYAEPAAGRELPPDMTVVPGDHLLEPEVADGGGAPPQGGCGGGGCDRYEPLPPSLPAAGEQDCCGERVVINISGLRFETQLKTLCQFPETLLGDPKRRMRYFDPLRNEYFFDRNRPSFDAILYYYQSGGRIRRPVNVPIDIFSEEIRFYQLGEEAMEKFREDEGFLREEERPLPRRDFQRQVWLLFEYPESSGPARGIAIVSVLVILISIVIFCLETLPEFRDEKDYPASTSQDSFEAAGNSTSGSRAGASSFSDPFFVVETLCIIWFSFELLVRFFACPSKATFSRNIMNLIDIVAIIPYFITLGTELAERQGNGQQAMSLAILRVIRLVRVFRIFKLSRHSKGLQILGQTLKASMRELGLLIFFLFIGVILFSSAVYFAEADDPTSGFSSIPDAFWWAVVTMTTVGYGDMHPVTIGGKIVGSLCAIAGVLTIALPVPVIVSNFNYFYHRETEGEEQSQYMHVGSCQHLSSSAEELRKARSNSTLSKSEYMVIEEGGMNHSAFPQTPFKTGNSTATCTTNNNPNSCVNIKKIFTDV
# T1 sequence (Q09470 whole entry): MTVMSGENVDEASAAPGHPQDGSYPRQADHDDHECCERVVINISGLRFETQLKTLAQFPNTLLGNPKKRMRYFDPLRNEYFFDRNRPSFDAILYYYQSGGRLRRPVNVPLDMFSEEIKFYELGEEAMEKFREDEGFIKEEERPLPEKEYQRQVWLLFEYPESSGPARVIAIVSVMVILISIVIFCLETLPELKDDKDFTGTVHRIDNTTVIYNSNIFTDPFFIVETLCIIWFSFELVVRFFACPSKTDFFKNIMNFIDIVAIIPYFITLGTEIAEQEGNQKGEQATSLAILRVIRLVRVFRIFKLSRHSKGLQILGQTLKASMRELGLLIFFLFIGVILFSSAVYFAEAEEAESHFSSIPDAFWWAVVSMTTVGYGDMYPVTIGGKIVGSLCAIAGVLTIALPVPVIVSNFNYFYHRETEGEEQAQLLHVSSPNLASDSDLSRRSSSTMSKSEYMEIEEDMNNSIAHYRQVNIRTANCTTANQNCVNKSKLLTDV
# Sequence of CoTx1 (O46028 29-60): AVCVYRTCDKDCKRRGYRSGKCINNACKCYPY
molecule,measurement,setting,value
"CC[C@H](C)[C@@H]1NC(=O)[C@@H]2CSSC[C@H](NC(=O)[C@@H](NC(=O)[C@@H](N)[C@@H](C)O)C(C)C)C(=O)N[C@@H](C(C)C)C(=O)N[C@@H](Cc3ccc(O)cc3)C(=O)N[C@@H](CCCNC(=N)N)C(=O)N[C@@H]([C@@H](C)O)C(=O)N[C@H]3CSSC[C@H](NC(=O)[C@H](C)NC(=O)[C@H](CC(N)=O)NC(=O)[C@H](CC(N)=O)NC1=O)C(=O)N[C@@H](CCCCN)C(=O)N[C@H](C(=O)N[C@@H](Cc1ccc(O)cc1)C(=O)N1CCC[C@H]1C(=O)N[C@@H](Cc1ccc(O)cc1)C(=O)O)CSSC[C@H](NC(=O)[C@H](CC(=O)O)NC(=O)[C@H](CCCCN)NC(=O)[C@H](CC(=O)O)NC3=O)C(=O)N[C@@H](CCCCN)C(=O)N[C@@H](CCCNC(=N)N)C(=O)N[C@@H](CCCNC(=N)N)C(=O)NCC(=O)N[C@@H](Cc1ccc(O)cc1)C(=O)N[C@@H](CCCNC(=N)N)C(=O)N[C@@H](CO)C(=O)NCC(=O)N[C@@H](CCCCN)C(=O)N2 [CboK2] (H-TVCVYRTCDKDCKRRGYRSGKCINNACKCYPY-OH; disulfide 3-22, 8-27, 12-29)",effect on Kv1.1 currents,hKv1.1; 100 nM toxin,did not block
same,Kd,"hKv1.1; this study, screened at 100 nM, read-out: Kd Values Kv1.1 (symbol)",> 0.1 µM
same,Kd,"hKv1.2; Hill fit of RCF vs toxin concentration, cumulative application, equilibrium block, pulses to +50 mV from -120 mV, n ≥ 3, read-out: Kd for Kv1.2",0.000763 µM
same,"Hill coefficient H, Kv1.2 block","hKv1.2; Hill fit of RCF vs toxin concentration, n ≥ 3",1.5
same,remaining current fraction (RCF) of Kv1.3 at +50 mV,"Kv1.3 [1]; 1 µM toxin, end of 15-ms pulse to +50 mV (Figure 6C)",~ 0.34
same,"Hill coefficient H, Kv1.3 block","Kv1.3 [1]; Hill fit of isochronal RCF (4 ms), n ≥ 3",0.8
same,Kd,"Kv1.3 [1]; Hill fit of isochronal RCF (current at 4 ms), 15-ms pulses to +50 mV from -120 mV, n ≥ 3, read-out: Kd for Kv1.3",0.171 µM
same,remaining current fraction (RCF) of Kv1.3 at 0 mV,Kv1.3 [2],~ 0.23
"CC[N+](CC)(CC)CC [TEA, tetraethylammonium, reference compound]",reduction in Kv1.1 current by positive control,"hKv1.1; 0.3 mM TEA, equilibrium block",Approximately 50%
same,reduction in Kv1.3 current by positive control,"Kv1.3 [1]; 10 mM TEA, equilibrium block",Approximately 50%
same,Kd,Kv1.1,300 µM
same,Kd,Kv1.3 [3],10000 µM
"Charybdotoxin [ChTx, reference compound]",reduction in Kv1.2 current by positive control,"hKv1.2; 14 nM ChTx, equilibrium block",Approximately 50%
same,Kd,"Kv1.2; no reference given, read-out: Kd for Kv1.2 (positive control concentration equivalent to Kd)",0.014 µM
CoTx1 (from UniProt O46028),Kd,Kv1.2 (Homo sapiens),0.027 µM
Maurotoxin,"selectivity for Kv1.2 over Kv1.1, literature","Kv1.2; 46 (Maurotoxin), 40 (CoTx1)",~ 56 fold
same,"selectivity for Kv1.2 over Kv1.3, literature","Kv1.2; 46 (Maurotoxin), 40 (CoTx1)",225 fold
same,Kd,"Kv1.2; ref 40 (CoTx1), 33 (II-x toxins), 45, 46 (Maurotoxin), read-out: Kd for Kv1.2, literature",0.0008 µM

# Reference: PMC10467108, “Of Seven New K^+ Channel Inhibitor Peptides of Centruroides bonito, α-KTx 2.24 Has a Picomolar Affinity for Kv1.2” (Toxins, 2023)
